{
  "source": "patent US20100056627A1",
  "about": "“PHARMACEUTICAL COMPOSITIONS OF ALKYL GALLATES” (priority 2006, published 2010)",
  "key": {"influenza virus B/T/1/05": {"system": "influenza virus B/T/1/05", "test": "Time course of virucidal activity at 37° C., infectivity by plaque assay in MDCK cells (FIGS. 6 to 12)", "assay_type": "cell-based", "description": "The experiments in FIGS. 7 to 12 were carried out at 37° C. The infectivity of viruses was determined using MDCK cells by the plaque assay method.\nThis virucidal activity of octyl gallate was reinforced by propyl gallate also against influenza virus A/Aichi (H3N2) in the same manner as above."}, "herpes virus (HSV-1)": {"system": "herpes virus (HSV-1)", "test": "Virucidal activity against HSV-1 (Tables 14, 15, FIG. 5)", "assay_type": "cell-based"}, "[1]": {"system": "clinical isolates MRSA and MSSA", "settings": "for Recrystalized octyl gallate MIC: sodium ascorbate 0.5 mg/ml; for MIC50 / MIC: Staphylococcus aureus, MRSA|MSSA; for MIC50: read-out: MIC50, 24 h MIC, MRSA, trisodium citrate medium"}},
  "note": "Values joined by “and” are separate entries in the source; they are usually repeats but may differ in a detail not shown here. Equal entries are not always repeated. Where two headings read alike, the source gives them in different places.",
  "data": [
    {"compound": "CCCCCCCCOC(=O)c1cc(O)c(O)c(O)c1", "note": "[octyl gallate]", "values": [
      {"measurement": "virucidal activity of octyl gallate alone", "setting": "influenza virus B/T/1/05; influenza virus B/T/1/05, FIG. 7", "result": "has a virucidal activity"},
      {"measurement": "time until the infectivity to cells is lost", "setting": "influenza virus B/T/1/05; octyl gallate 30 mg/L and propyl gallate 300 mg/L, 37° C., FIG. 12", "result": "≤ 1", "unit": "min"},
      {"measurement": "No of plaques", "setting": "herpes virus (HSV-1); Table 14, octyl gallate 10 mg/L, J1816 30 mg/L, Na3citrate 0.90%", "result": 0},
      {"measurement": "No of plaques", "setting": "herpes virus (HSV-1); Table 14, octyl gallate 10 mg/L, propyl gallate 300 mg/L, J1816 120 mg/L, Na3citrate 0.90%", "result": 0},
      {"measurement": "No of plaques", "setting": "herpes virus (HSV-1); Table 14, octyl gallate 20 mg/L, J1816 60 mg/L, Na3citrate 0.90%", "result": 0},
      {"measurement": "No of plaques", "setting": "herpes virus (HSV-1); Table 14, octyl gallate 20 mg/L, propyl gallate 300 mg/L, J1816 150 mg/L, Na3citrate 0.90%", "result": 0},
      {"measurement": "No of plaques", "setting": "herpes virus (HSV-1); Table 14, octyl gallate 30 mg/L, J1816 90 mg/L, Na3citrate 0.90%", "result": 0},
      {"measurement": "No of plaques", "setting": "herpes virus (HSV-1); Table 14, octyl gallate 30 mg/L, propyl gallate 300 mg/L, J1816 180 mg/L, Na3citrate 0.90%", "result": 0},
      {"measurement": "No of plaques", "setting": "herpes virus (HSV-1); Table 14, octyl gallate 60 mg/L, J1816 180 mg/L, Na3citrate 0.90%", "result": 0},
      {"measurement": "No of plaques", "setting": "herpes virus (HSV-1); Table 14, octyl gallate 60 mg/L, J1816 180 mg/L, Na3citrate not given", "result": 0},
      {"measurement": "No of plaques", "setting": "herpes virus (HSV-1); Table 14, octyl gallate 60 mg/L, propyl gallate 300 mg/L, J1816 270 mg/L, Na3citrate 0.90%", "result": 0},
      {"measurement": "No of plaques", "setting": "herpes virus (HSV-1); Table 14, octyl gallate 100 mg/L, J1816 300 mg/L, Na3citrate 0.90%", "result": 0},
      {"measurement": "No of plaques", "setting": "herpes virus (HSV-1); Table 14, octyl gallate 100 mg/L, propyl gallate 300 mg/L, J1816 390 mg/L, Na3citrate 0.90%", "result": 0},
      {"measurement": "No of plaques", "setting": "herpes virus (HSV-1); Table 15, octyl gallate 10 mg/L, J1816 0, NaCitrate 0.90%", "result": 48},
      {"measurement": "No of plaques", "setting": "herpes virus (HSV-1); Table 15, octyl gallate 10 mg/L, propyl gallate 300 mg/L, J1816 0, NaCitrate 0.90%", "result": 11},
      {"measurement": "No of plaques", "setting": "herpes virus (HSV-1); Table 15, octyl gallate 20 mg/L, J1816 0, NaCitrate 0.90%", "result": 0},
      {"measurement": "No of plaques", "setting": "herpes virus (HSV-1); Table 15, octyl gallate 20 mg/L, propyl gallate 300 mg/L, J1816 0, NaCitrate 0.90%", "result": 0},
      {"measurement": "No of plaques", "setting": "herpes virus (HSV-1); Table 15, octyl gallate 30 mg/L, J1816 0, NaCitrate 0.90%", "result": 0},
      {"measurement": "No of plaques", "setting": "herpes virus (HSV-1); Table 15, octyl gallate 30 mg/L, propyl gallate 300 mg/L, J1816 0, NaCitrate 0.90%", "result": 0},
      {"measurement": "No of plaques", "setting": "herpes virus (HSV-1); Table 15, octyl gallate 60 mg/L, J1816 0, NaCitrate 0.90%", "result": 0},
      {"measurement": "No of plaques", "setting": "herpes virus (HSV-1); Table 15, octyl gallate 60 mg/L, propyl gallate 300 mg/L, J1816 0, NaCitrate 0.90%", "result": 0},
      {"measurement": "No of plaques", "setting": "herpes virus (HSV-1); Table 15, octyl gallate 100 mg/L, J1816 0, NaCitrate 0.90%", "result": 0},
      {"measurement": "No of plaques", "setting": "herpes virus (HSV-1); Table 15, octyl gallate 100 mg/L, propyl gallate 300 mg/L, J1816 0, NaCitrate 0.90%", "result": 0},
      {"measurement": "virucidal activity of octyl gallate against HSV-1", "setting": "herpes virus (HSV-1); with 60 mg/L of propyl gallate, FIG. 5", "result": "marked reinforcement"},
      {"measurement": "Recrystalized octyl gallate MIC", "setting": "[1]; MHA (+0.9% disodium hydrogen citrate), DDW, 24 h", "result": "0.625 µg/mL and 1.25 µg/mL"},
      {"measurement": "Recrystalized octyl gallate MIC", "setting": "[1]; MHA (+0.9% trisodium citrate), propyl gallate 100 mg/L (with J-1216), 24 h", "result": 1.25, "unit": "µg/mL"},
      {"measurement": "Recrystalized octyl gallate MIC", "setting": "[1]; MHA (+0.9% trisodium citrate), propyl gallate 200 mg/L (with J-1216), 24 h", "result": "0.625 µg/mL and 1.25 µg/mL"},
      {"measurement": "octyl gallate concentration at which all strains were killed", "setting": "[1]; MRSA (21 strains) and MSSA (8 strains), concomitant propyl gallate 50 mg/L, disodium hydrogen citrate", "result": 1.25, "unit": "mg/L"},
      {"measurement": "MIC50", "setting": "[1]; 24 h, J-1216 600 mg/L", "result": 20, "unit": "µg/mL"},
      {"measurement": "MIC50", "setting": "[1]; 24 h, propyl gallate 75 mg/L", "result": 10, "unit": "µg/mL"},
      {"measurement": "MIC50", "setting": "[1]; 24 h, propyl gallate 100 mg/L", "result": 2.5, "unit": "µg/mL"},
      {"measurement": "MIC50", "setting": "[1]; 24 h, propyl gallate 200 mg/L", "result": 2.5, "unit": "µg/mL"},
      {"measurement": "MIC", "setting": "[1]; 24 h, read-out: MIC100, 24 h MIC, MRSA, disodium hydrogen citrate medium, DDW", "result": 2.5, "unit": "µg/mL"},
      {"measurement": "MIC", "setting": "[1]; 24 h, read-out: MIC100, 24 h MIC, MRSA, disodium hydrogen citrate medium, propyl gallate 50 mg/L", "result": 1.25, "unit": "µg/mL"},
      {"measurement": "MIC", "setting": "[1]; 24 h, read-out: MIC100, 24 h MIC, MRSA, trisodium citrate medium, J-1216 600 mg/L", "result": 50, "unit": "µg/mL"},
      {"measurement": "MIC", "setting": "[1]; 24 h, read-out: MIC100, 24 h MIC, MRSA, trisodium citrate medium, propyl gallate 75 mg/L", "result": 10, "unit": "µg/mL"},
      {"measurement": "MIC", "setting": "[1]; 24 h, read-out: MIC100, 24 h MIC, MRSA, trisodium citrate medium, propyl gallate 100 mg/L", "result": 5, "unit": "µg/mL"},
      {"measurement": "MIC", "setting": "[1]; 24 h, read-out: MIC100, 24 h MIC, MRSA, trisodium citrate medium, propyl gallate 200 mg/L", "result": 5, "unit": "µg/mL"},
      {"measurement": "MIC", "setting": "[1]; 24 h, read-out: Octyl gallate MIC, CAMHA, isoamyl gallate 50 μg/mL, 24 h", "result": "≤ 0.0244", "unit": "µg/mL"},
      {"measurement": "MIC", "setting": "[1]; 24 h, read-out: Recrystalized octyl gallate MIC, MHA (+0.9% disodium hydrogen citrate), sodium ascorbate 0.5 mg/ml, DDW, 24 h", "result": 2.5, "unit": "µg/mL"},
      {"measurement": "MIC", "setting": "[1]; 24 h, read-out: Recrystalized octyl gallate MIC, MHA (+0.9% disodium hydrogen citrate), sodium ascorbate 0.5 mg/ml, propyl gallate 50 mg/L, 24 h", "result": 1.25, "unit": "µg/mL"},
      {"measurement": "MIC", "setting": "[1]; 24 h, read-out: Recrystalized octyl gallate MIC, MHA (+0.9% trisodium citrate), sodium ascorbate 0.5 mg/ml, propyl gallate 100 mg/L (with J-1216), 24 h", "result": 2.5, "unit": "µg/mL"},
      {"measurement": "MIC", "setting": "[1]; 24 h, read-out: Recrystalized octyl gallate MIC, MHA (+0.9% trisodium citrate), sodium ascorbate 0.5 mg/ml, propyl gallate 200 mg/L (with J-1216), 24 h", "result": 2.5, "unit": "µg/mL"},
      {"measurement": "MIC", "setting": "[1]; 48 h, read-out: Octyl gallate MIC, Isoamyl G none, 48 h, strain = c6 of each row", "result": 31.2, "unit": "µg/mL"},
      {"measurement": "MIC Range, 24 h MIC, MRSA", "setting": "[1]; disodium hydrogen citrate medium, DDW", "result": "0.625 to 2.5", "unit": "µg/mL"},
      {"measurement": "MIC Range, 24 h MIC, MRSA", "setting": "[1]; disodium hydrogen citrate medium, propyl gallate 50 mg/L", "result": "0.625 to 1.25", "unit": "µg/mL"},
      {"measurement": "MIC Range, 24 h MIC, MRSA", "setting": "[1]; trisodium citrate medium, J-1216 600 mg/L", "result": "20 to 50", "unit": "µg/mL"},
      {"measurement": "MIC Range, 24 h MIC, MRSA", "setting": "[1]; trisodium citrate medium, propyl gallate 75 mg/L", "result": "2.5 to 10", "unit": "µg/mL"},
      {"measurement": "MIC Range, 24 h MIC, MRSA", "setting": "[1]; trisodium citrate medium, propyl gallate 100 mg/L", "result": "1.25 to 5", "unit": "µg/mL"},
      {"measurement": "MIC Range, 24 h MIC, MRSA", "setting": "[1]; trisodium citrate medium, propyl gallate 200 mg/L", "result": "0.0625 to 5", "unit": "µg/mL"}
    ]}
  ]
}
